Test results: US20230049350A1, “COMPOUNDS FOR TREATING BRAIN CANCER” (Purdue Pharmaceutical Products L.P., priority 2014, published 2023)

Tests used:
GBM12 cells = assay: Intracerebral luciferase-transfected GBM12 murine brain tumour model; type: in vivo, athymic mice; details: for median survival: IV weekly day +4, +11, +18, EDO-S101 60 mg/kg, bendamustine 50 mg/kg, controls 52 days
Experimental: Therapeutic activity of EDO-S101 was determined in murine brain tumour models against GBM, based on tumour growth as determined by bioluminescence imaging and survival analysis as determined by Kaplan-Meier analysis.
Murine brain tumour models were created by intracerebral injection of 3×10^5 luciferase-transfected GBM12 cells in athymic mice under aesthesia using a stereotactic platform. GBM12 is a MGMT negative tumour cell line. Eight-week-old athymic mice underwent minimum 7 \-day acclimation/quarantine prior to surgery. Surgery was performed in a laminar flow hood under sterile conditions. Tylenol 300 mg/kg PO was given for analgesia 24 hours before the surgery continuing 48 hours postoperatively. Aesthesia was achieved by inhalation of 1-2% isoflurane. After the mouse became well anesthetized, it was placed in the Kopf stereotactic instrument. A small amount of BNP antibiotic cream (a mixture of Bacitracin, Neomycin and Polymyxin) was smeared on its eyes to prevent infection and corneal damage during surgery. A strip of soft fabric was placed over the mouse’s body and tail to prevent excessive heat loss during surgery. The scalp area was cleaned with a 2% solution of Betadine and dried with cotton tipped applicator. A midline sagittal incision was made in the scalp.
A small burr hole was drilled in the left skull with a surgical drill (Kopf) or a Dremel drill according to the coordinates (AP: 0.5 mm, LM: 2.5 mm) as determined by reference to the mouse brain atlas by Franklin and Paxinos. […] The mice were monitored post-operatively at least twice a day for 5 days or until recovery is complete. […]
After intracerebral injection of the GBM cells, all the mice were subjected to bioluminescence imaging (BLI) twice a week starting at day-4 post-intracerebral injection to monitor the real-time in vivo tumour growth. […] Peak luminescent signals were recorded 10 minutes after luciferin injection. Regions of interest encompassing the intracranial area of signal were defined using Living Image software (Xenogen, Alameda, CA), and the total photons/s/steradian /cm2 was recorded. […]

U251-luciferase = assay: Orthotopic model of U251-luciferase transfected cells; type: in vivo, mice; details: for mice with tumours of some grade (percent): control 72.7%
Experimental: Mice isotopically transfected with U251-luciferase in accordance with the procedure of Example 3 were treated with radiotherapy (2 Gy for 5 consecutive days), temozolomide (16 mg/kg for 5 consecutive days, po), radiotherapy and temozolomide (2 Gy for 5 consecutive days and 16 mg/kg for 5 consecutive days, po), EDO-S101 (60 mg/kg, intravenously at days 1, 8 and 15 of the treatment cycle) or control vehicle.
Intracranial tumour growth was monitored with the […] imaging system (Caliper Life Sciences, Hopkinton, MA, USA). Mice were anesthetized with 2% to 4% isofluorane (Baxter, Deerfield, IL, USA) followed by intraperitoneal injections of 150 mg/kg d-luciferin (In Vivo Imaging Solutions). Five animals were measured at the same time and the luminescent camera was set to 1 minute exposure, medium binning, 1 f/stop, blocked excitation filter, and open emission filter. The photographic camera was set to 2 s exposure, medium binning, and 8 f/stop. The field of view was set to 22 cm to capture five mice at once. Serial images were taken on a weekly basis using identical settings. Bioluminescence intensity was quantified using the Living Image software (Caliper Life Sciences).
Before any irradiation mice were anesthetized with a mixture of ketamine (25 mg/ml)/xylazine (5 mg/ml). Anesthetized tumour-bearing mice received a focal irradiation at the dose of 2 Gy for 5 consecutive days. Irradiation was delivered using an X-ray linear accelerator at a dose rate of 200 cGy/min at room temperature. All mice were shielded with a specially designed lead apparatus to allow irradiation to the […]. Mice were kept under these conditions until all irradiation finished.
All images were obtained in the transverse plane using the following sequences: transverse T2-weighted turbo spin-echo (TSE) sequence (repetition time [TR] msec/echo time [TE] msec) 6766/120, number of signal acquired 4, matrix of 192 × 192) applied with a section thickness of […], an intersection gap of 0.0 mm, and a flip angle of 160 °. The field of view was 36 × 60 mm^2, which included the tumour in its entirety with a resultant voxel size of 0.3 × 0.3 × 1.0 mm^3.
Continuous variables were summarized as mean and standard deviation (SD) or as median and 95% Cl for the median. For continuous variables not normally distributed, statistical comparisons between control and treated groups were established by carrying out the Kruskal-Wallis Tests. For continuous variables normally distributed, statistical comparisons between control and treated groups were established by carrying out the ANOVA test or by Student t test for unpaired data (for two comparisons).

[1] = test system: MB-468 breast cancer cells; assay: Murine model for metastatic breast cancer of the brain, intracerebral MB-468; type: in vivo, mice; details: MB-468 intracerebral; for median survival: single iv dose day +4, EDO-S101 60 mg/kg, bendamustine 50 mg/kg, controls 55 days
Experimental: The procedure of Example 3 was repeated, except the murine models were created with 1×10^5 luciferase-transfected MB-468 breast cancer cells to create a […]. EDO-S101 (60 mg/kg body weight), bendamustine (50 mg/kg body weight) and control was administered intravenously via a tail vein to separate groups of the test mice in a single dose on day +4 post intracerebral implantation of the MB-468 breast cancer cells. […] EDO-S101 therefore appears to be a particularly promising treatment for metastatic brain cancer.

NCI-60 cell lines = details: read-out: median IC50 value; cited from earlier work
[2] = drug alone, 50 days after beginning of treatment

Structure (SMILES): Cn1c(CCCCCCC(=O)NO)nc2cc(N(CCCl)CCCl)ccc21 [EDO-S101]
- tumour growth (bioluminescence imaging) (GBM12 cells; IV 60 mg/kg day +4, +11, +18): suppression of tumour growth
- median survival (GBM12 cells): 66 days
- survival probability versus radiotherapy or temozolomide (U251-luciferase; drug alone, 60 mg/kg iv days 1, 8, 15, FIG. 17): significantly greater
- mice displaying a large lesion (number) (U251-luciferase; [2]): 1 of the 13
- mice with tumours of some grade (number) (U251-luciferase; drug alone, 50 days after beginning of treatment, control 8 out of 11): 5 out of 13
- mice with tumours of some grade (percent) (U251-luciferase; [2]): 38.5%
- tumour growth ([1]; single iv dose 60 mg/kg day +4): suppression of tumour growth
- median survival [1]: 71 days
- IC50 (NCI-60 cell lines): 2.2 µM

Structure (SMILES): Cn1c(CCCC(=O)O)nc2cc(N(CCCl)CCCl)ccc21 [bendamustine]
- median survival (GBM12 cells): 58 days
- median survival [1]: 62 days
- IC50 (NCI-60 cell lines): 72 µM

Structure (SMILES): Cn1nnc2c(C(N)=O)ncn2c1=O [temozolomide]
- mice with tumours of some grade (percent) (U251-luciferase; [2]): 38.5%
- mice displaying lesions at the end of the study (percent) (U251-luciferase; with radiotherapy 2 Gy x 5 days, temozolomide 16 mg/kg po x 5 days): 18.2%
